Data: ChEMBL document CHEMBL3808287, “AXL Inhibitors in Cancer: A Medicinal Chemistry Perspective” (J Med Chem, 2016)

Key:
[1] = molecular target: T1, Tyrosine-protein kinase receptor UFO (Homo sapiens, UniProt P30530); test: Inhibition of AXL (unknown origin)
T1 sequence (P30530 whole entry): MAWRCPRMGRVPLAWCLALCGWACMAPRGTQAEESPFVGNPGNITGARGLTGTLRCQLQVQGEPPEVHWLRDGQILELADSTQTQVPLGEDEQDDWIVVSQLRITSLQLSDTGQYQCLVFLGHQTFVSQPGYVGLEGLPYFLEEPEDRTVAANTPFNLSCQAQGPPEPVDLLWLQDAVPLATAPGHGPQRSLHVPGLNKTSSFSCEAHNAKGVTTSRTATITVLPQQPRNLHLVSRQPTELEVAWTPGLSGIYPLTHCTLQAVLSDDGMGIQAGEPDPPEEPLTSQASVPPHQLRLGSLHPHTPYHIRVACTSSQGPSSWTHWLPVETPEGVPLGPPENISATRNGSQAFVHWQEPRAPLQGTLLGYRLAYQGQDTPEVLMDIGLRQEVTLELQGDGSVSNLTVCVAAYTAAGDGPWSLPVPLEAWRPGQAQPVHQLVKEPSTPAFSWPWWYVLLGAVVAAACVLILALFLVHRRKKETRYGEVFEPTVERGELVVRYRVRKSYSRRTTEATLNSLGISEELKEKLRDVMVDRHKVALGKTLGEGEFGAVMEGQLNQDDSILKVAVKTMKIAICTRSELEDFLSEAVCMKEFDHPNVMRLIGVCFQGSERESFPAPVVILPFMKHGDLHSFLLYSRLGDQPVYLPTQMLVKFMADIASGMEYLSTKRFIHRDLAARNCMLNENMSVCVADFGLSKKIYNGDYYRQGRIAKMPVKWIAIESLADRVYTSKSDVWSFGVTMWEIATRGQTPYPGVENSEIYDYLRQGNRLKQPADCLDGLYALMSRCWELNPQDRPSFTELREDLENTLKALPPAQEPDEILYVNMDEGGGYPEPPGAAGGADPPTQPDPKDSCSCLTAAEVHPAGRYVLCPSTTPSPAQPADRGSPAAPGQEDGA

[2] = molecular target: T1, Tyrosine-protein kinase receptor UFO; test: Inhibition of AXL (unknown origin) by cell based assay
[3] = molecular target: T1, Tyrosine-protein kinase receptor UFO; test: Inhibition of human recombinant AXL expressed in Escherichia coli BL21 infected with T7 phage by qPCR method
[4] = molecular target: Hepatocyte growth factor receptor (Homo sapiens, UniProt P08581); test: Inhibition of human recombinant MET expressed in Escherichia coli BL21 infected with T7 phage by qPCR method
Hepatocyte growth factor receptor, sequence (P08581 whole entry): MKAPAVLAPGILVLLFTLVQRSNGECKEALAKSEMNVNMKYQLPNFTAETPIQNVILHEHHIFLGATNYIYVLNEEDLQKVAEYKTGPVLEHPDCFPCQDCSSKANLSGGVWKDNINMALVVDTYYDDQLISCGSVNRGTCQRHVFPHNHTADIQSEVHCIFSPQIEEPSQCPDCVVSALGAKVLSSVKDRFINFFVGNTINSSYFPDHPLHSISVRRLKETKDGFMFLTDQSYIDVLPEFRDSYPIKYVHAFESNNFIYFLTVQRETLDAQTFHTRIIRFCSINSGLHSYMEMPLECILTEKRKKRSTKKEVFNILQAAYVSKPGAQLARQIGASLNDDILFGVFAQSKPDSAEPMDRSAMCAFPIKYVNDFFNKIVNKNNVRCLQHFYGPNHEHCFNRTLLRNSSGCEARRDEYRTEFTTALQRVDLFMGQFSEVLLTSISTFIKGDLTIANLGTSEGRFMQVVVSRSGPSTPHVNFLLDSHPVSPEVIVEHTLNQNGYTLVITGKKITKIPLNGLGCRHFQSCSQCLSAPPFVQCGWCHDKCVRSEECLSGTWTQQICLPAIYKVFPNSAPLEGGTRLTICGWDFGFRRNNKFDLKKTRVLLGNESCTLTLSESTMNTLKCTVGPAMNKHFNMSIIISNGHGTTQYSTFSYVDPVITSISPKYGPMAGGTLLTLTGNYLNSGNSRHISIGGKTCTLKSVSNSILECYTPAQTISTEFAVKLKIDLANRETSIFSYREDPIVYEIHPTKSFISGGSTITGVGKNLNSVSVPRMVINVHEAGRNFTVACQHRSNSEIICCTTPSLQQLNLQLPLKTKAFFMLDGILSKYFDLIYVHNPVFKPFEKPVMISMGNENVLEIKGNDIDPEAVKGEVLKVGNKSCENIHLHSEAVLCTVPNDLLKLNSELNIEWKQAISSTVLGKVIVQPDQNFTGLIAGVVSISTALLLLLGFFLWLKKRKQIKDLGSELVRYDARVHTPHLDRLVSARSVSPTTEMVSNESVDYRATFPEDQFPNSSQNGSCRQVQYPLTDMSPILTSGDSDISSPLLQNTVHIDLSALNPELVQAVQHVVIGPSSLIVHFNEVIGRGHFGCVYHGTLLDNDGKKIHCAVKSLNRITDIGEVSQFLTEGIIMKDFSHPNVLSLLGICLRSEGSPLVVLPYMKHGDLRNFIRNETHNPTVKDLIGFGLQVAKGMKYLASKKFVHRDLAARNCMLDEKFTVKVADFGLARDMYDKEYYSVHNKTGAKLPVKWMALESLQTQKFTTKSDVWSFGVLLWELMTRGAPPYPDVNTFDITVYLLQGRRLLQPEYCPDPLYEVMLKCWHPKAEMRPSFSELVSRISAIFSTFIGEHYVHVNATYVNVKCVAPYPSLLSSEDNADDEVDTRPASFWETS

[5] = molecular target: T1, Tyrosine-protein kinase receptor UFO; test: Inhibition of AXL in human GIST cells; type: cell-based
[6] = molecular target: Tyrosine-protein kinase ABL1 (Homo sapiens, UniProt P00519); test: Inhibition of human recombinant ABL by fluorescence polarization assay
Tyrosine-protein kinase ABL1, sequence (P00519 whole entry): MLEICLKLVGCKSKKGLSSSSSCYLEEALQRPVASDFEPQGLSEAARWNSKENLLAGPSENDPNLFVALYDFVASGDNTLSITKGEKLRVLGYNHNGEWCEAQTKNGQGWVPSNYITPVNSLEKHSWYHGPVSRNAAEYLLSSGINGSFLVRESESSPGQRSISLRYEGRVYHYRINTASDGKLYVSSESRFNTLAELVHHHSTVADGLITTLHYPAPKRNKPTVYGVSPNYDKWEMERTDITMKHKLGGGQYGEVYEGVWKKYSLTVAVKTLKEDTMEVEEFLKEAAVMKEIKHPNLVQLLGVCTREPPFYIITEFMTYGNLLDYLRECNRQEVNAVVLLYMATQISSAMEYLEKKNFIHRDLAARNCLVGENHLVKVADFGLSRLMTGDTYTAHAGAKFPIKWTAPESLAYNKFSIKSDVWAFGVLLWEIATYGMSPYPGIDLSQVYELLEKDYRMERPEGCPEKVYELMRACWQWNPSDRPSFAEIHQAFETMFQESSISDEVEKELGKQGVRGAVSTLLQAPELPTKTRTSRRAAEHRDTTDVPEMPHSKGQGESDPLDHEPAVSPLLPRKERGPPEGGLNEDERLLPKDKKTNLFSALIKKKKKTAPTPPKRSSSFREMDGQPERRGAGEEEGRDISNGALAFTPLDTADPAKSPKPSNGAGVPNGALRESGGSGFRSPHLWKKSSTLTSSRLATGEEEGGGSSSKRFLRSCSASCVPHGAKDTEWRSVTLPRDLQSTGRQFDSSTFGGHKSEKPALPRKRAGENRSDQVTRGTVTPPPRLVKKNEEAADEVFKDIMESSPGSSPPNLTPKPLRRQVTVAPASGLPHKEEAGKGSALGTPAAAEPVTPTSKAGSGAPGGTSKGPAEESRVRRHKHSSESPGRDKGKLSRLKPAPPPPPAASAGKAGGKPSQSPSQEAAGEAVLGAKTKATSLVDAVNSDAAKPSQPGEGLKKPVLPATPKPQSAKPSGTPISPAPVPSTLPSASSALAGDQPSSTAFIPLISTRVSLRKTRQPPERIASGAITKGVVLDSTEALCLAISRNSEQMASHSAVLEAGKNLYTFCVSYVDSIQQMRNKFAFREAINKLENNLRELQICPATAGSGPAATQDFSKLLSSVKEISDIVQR

[7] = molecular target: T2, Tyrosine-protein kinase receptor TYRO3 (Homo sapiens, UniProt Q06418); test: Inhibition of human recombinant TYRO3 by fluorescence polarization assay
T2 sequence (Q06418 whole entry): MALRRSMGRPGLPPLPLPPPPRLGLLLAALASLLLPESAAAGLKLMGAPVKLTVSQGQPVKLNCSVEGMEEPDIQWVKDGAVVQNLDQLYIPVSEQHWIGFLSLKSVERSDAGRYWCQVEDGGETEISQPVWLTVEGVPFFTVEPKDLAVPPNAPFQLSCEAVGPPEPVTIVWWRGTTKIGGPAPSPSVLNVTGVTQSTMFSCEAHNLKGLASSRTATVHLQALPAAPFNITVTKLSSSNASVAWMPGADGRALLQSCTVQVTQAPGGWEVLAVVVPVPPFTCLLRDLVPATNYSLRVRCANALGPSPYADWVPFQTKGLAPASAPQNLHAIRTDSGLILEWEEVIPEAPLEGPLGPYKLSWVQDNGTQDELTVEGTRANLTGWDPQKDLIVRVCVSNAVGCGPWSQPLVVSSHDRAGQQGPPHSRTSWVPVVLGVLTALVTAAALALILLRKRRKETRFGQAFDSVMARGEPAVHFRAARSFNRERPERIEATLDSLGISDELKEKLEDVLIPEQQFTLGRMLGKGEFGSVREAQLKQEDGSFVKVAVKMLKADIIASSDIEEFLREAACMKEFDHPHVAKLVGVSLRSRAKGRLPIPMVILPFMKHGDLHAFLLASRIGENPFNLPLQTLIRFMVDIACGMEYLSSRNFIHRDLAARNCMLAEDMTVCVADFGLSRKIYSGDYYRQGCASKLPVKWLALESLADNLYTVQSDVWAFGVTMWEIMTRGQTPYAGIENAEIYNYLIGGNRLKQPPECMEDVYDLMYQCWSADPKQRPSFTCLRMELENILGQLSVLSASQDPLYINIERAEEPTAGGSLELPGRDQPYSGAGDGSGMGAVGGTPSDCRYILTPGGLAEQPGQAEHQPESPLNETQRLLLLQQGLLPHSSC

[8] = system: MDA-MB-231; test: Antimetastatic activity against human MDA-MB-231-luc-D3H2LN cells xenografted in NCr nu/nu mouse assessed as mouse survival at 125 mg/kg, bid administered daily for 21 days measured on day 22 by bioluminescence imaging analysis; type: functional
[9] = molecular target: Vascular endothelial growth factor receptor 2 (Homo sapiens, UniProt P35968); test: Inhibition of VEGFR2 (unknown origin)
Vascular endothelial growth factor receptor 2, sequence (P35968 whole entry): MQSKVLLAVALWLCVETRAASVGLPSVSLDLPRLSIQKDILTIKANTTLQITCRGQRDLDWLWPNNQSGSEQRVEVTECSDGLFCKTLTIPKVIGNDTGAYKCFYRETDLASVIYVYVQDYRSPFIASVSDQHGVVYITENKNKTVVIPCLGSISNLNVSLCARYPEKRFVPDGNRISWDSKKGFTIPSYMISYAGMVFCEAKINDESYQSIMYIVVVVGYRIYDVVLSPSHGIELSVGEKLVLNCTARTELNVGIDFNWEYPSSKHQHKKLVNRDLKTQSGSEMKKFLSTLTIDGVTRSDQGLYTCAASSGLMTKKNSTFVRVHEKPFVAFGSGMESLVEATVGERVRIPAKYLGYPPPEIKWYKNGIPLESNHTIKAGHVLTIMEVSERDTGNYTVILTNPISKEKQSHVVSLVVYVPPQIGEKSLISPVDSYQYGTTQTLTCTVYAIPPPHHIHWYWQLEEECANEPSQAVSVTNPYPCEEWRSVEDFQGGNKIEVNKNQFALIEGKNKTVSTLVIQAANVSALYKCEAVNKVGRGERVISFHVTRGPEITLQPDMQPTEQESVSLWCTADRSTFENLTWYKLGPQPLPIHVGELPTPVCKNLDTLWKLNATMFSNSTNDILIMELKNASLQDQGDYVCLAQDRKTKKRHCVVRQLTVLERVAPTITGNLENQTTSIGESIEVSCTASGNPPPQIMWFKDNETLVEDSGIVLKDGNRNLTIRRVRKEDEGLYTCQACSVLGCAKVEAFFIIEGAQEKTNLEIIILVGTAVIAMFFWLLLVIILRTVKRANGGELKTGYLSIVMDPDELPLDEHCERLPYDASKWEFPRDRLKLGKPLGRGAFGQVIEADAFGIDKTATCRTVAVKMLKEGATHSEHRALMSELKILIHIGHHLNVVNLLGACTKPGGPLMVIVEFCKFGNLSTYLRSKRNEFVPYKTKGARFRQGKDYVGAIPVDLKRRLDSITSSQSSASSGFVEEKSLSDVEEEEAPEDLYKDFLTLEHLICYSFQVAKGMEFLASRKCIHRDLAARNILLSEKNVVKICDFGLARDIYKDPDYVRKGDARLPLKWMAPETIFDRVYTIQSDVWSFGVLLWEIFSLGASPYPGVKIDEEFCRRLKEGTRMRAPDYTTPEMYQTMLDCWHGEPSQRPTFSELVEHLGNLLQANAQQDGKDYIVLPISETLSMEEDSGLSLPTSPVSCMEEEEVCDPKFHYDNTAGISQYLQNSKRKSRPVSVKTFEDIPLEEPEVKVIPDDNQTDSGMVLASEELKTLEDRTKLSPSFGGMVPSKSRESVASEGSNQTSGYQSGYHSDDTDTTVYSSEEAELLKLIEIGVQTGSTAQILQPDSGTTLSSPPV

[10] = molecular target: T1, Tyrosine-protein kinase receptor UFO; test: Inhibition of human full length AXL by scintillation counting method in presence of 33P-gammaATP
[11] = molecular target: T1, Tyrosine-protein kinase receptor UFO; test: Inhibition of human full length AXL after 4 hrs followed by stimulation with human recombinant Gas6 for 15 minutes by cell based assay

## Cc1c[nH]c2nc(Nc3ccc(N4CCN(C)CC4)c(F)c3)nc(-c3cccc(CC#N)c3)c12
[1]
  IC50: 58 nM
[2]
  IC50: < 1000 nM

## Cc1c(C(=O)Nc2ccc(Oc3ccnc4[nH]cc(-c5ccccc5)c34)c(F)c2)c(=O)n(-c2ccc(F)cc2)n1C
[3]
  IC50: 10 nM
[2]
  IC50: < 500 nM
[4]
  IC50: 48 nM

## S=C(NCc1ccc2c(c1)OCO2)N1CCN(c2ncnc3c2oc2ccccc23)CC1 [AMUVATINIB]
[5]
  IC50: < 1000 nM

## Nc1nc(Nc2ccc3c(c2)CC[C@@H](N2CCCC2)CC3)nn1-c1cc2c(nn1)-c1ccccc1CCC2 [BEMCENTINIB]
[6]
  IC50: > 700 nM
[7]
  IC50: > 700 nM
[8]
  survival at 125 mg/kg: > 35%

## COCCNCc1ccc(-c2cc3nccc(Oc4ccc(NC(=S)NC(=O)Cc5ccc(F)cc5)cc4F)c3s2)nc1 [GLESATINIB]
[9]
  IC50: 1 nM

## Cc1ccc(C(=O)Nc2ccc(Oc3cc4cnn(C)c4cc3-c3cn[nH]c3)c(F)c2)c(=O)n1-c1ccc(F)cc1 [MERESTINIB]
[10]
  IC50: 11 nM
[11]
  IC50: 2 nM
